Earlier results on 1 compound are cited in US20210349074A1, “METHOD OF TESTING TEARS AS A BIOMARKER FOR CANNABINOIDS” (priority 2020, published 2021).

The conditions of the data set: during the first two hours after using cannabis.

As to `CCCCCc1cc(O)c2c(c1)OC(C)(C)[C@@H]1CCC(C)=C[C@@H]21` [THC, Δ9-tetrahydrocannabinol], the “average drop of participants' THC blood levels” value is listed as 5 ng/mL.
